Test results taken from patent US12195427B2, “MASP-2 inhibitors and methods of use” (priority 2018, dated 2025).

Molecular target: MASP-2 CCP2-SP (Homo sapiens (Human), UniProt O00187)
Test: MASP-2 co-crystallization, X-ray crystallography and structure analysis (H-bonds, van der Waals contacts);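 on Ligand-pharmacophore element distance, pharmacophore element C2: distance from averaged pharmacophore element to bound ligand; missing value means element absent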;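 on Ligand-pharmacophore element distance, pharmacophore element C3: distance from averaged pharmacophore element to bound ligand; missing value means element absent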;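 on Ligand-pharmacophore element distance, pharmacophore element C4: distance from averaged pharmacophore element to bound ligand; missing value means element absent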;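 on Ligand-pharmacophore element distance, pharmacophore element C5: distance from averaged pharmacophore element to bound ligand; missing value means element absent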
Set-up: van der Waals contact distance, MASP-2 HIS 483 atom CD2 / van der Waals contact distance, MASP-2 HIS 483 atom NE2 / van der Waals contact distance, SER 654 C to compound atom / van der Waals contact distance, SER 654 O to compound atom / van der Waals contact distance, TRP 655 C to compound atom / van der Waals contact distance, MASP-2 GLY 528 atom CA / van der Waals contact distance TRP 655 atom CZ3 / van der Waals contact distance TRP 655 atom N / van der Waals contact distance TRP 655 atom CE3 / van der Waals contact distance GLY 656 atom C / van der Waals contact distance GLY 656 atom CA / van der Waals contact distance GLY 656 atom O / van der Waals contact distance, MASP-2 TYR 607 atom CD1 / van der Waals contact distance, MASP-2 PRO 606 atom O / d(C3,CA1) / d(CA1,N1)2 / d(H4,O1) / d(H4,O2) / d(O1,O2) / d(CA1,O2) / d(CA6,O1) / d(CA6,O2) / d(CA1,C5) / d(O2,H3) / d(N2,C2) / d(CA5,N2) / d(N2,C4) / d(N2,C6) / d(N2,CA3) / d(N2,O3) / d(O4,H2): unit not given beside the values
Details: for Ligand-pharmacophore element distance, pharmacophore element C2 / Ligand-pharmacophore element distance, pharmacophore element C3 / Ligand-pharmacophore element distance, pharmacophore element C4 / Ligand-pharmacophore element distance, pharmacophore element C5 / Ligand-pharmacophore element distance, pharmacophore element C6 / Ligand-pharmacophore element distance, pharmacophore element C7 / Ligand-pharmacophore element distance, pharmacophore element CA1 / Ligand-pharmacophore element distance, pharmacophore element CA2 / Ligand-pharmacophore element distance, pharmacophore element CA3 / Ligand-pharmacophore element distance, pharmacophore element CA4 / Ligand-pharmacophore element distance, pharmacophore element CA5 / Ligand-pharmacophore element distance, pharmacophore element CA6: Table A4-1
Text: This example illustrates the preparation of recombinant MASP-2 protein, based on UniProt O00187, human mannan-binding lectin serine protease 2. Expression constructs for human MASP-2 CCP2-SP and CCP2-SP-6HIS were generated for recombinant expression in E. coli cells.
Typically, crystallization hits were obtained by screening against […] 96-well crystallization reagent kits (GRAS6, GRAS2, Hampton Research; MORPHEUS, Molecular Dimensions; Wizard 1&2 Cryo, Rigaku Reagents) and crystal growth was inspected by optical microscopy. Crystals were used directly or further optimized for X-ray diffraction. Crystals were captured with cryogenic loops and dipped into liquid nitrogen directly or cryoprotected with a 20% glycerol in crystallization formulation before flash-cooling in liquid nitrogen.
Thereafter crystals are transferred once or twice for soaking within the crystallization solution containing the MASP-2 inhibitor.
Crystals were diffracted with synchrotron X-rays of […] and X-ray diffraction datasets were collected at beamlines SSRL BL9-2, BL14-1, BL12-2 as well as ALS sector 5 using Dectris Pilatus and Eiger detectors. Structures were determined by molecular replacement using portions of the structure 1Q3X as search models and partially refined with Buster 2.10.2 or Refmac 5.8. […] When multiple ligand poses were observed, for instance arising from multiple molecules in the asymmetric unit or refined dual poses within the same molecule, only one pose was selected and analyzed.
LigPlot+ calls these ‘nonbonded contacts’ or ‘hydrophobic contacts’. Despite the name, there are atom pairings that include possible H-bonds. Thus, in some instances, the Table A2 also contains H-bond interactions.

[1] = Table A5-1 pharmacophore: distance between elements, S2/S1 region
[2] = Table A5-2 pharmacophore distance, S3/S4 region
[3] = Table A7-1, between pharmacophore elements of the bound compound
[4] = Table A7-2, between pharmacophore elements of the bound compound
[5] = Table A8-6, nearest protein atom in cell to the left

MASP-2 CCP2-SP, sequence (O00187 445-686): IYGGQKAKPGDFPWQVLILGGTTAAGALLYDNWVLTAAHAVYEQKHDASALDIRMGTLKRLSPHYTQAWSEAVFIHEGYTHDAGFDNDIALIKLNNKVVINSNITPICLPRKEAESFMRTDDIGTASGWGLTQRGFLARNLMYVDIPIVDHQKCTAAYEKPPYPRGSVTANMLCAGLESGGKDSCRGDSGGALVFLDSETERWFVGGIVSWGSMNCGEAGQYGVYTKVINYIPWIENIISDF
MASP-2 CCP2-SP, sequence (O00187 364-432 partner): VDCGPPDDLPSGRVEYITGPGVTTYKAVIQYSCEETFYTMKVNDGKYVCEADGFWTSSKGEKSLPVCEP

## C[C@H](NC(=O)[C@H]1C[C@@H](c2ccccc2)CCN1)C(=O)NCc1cc(Cl)ccc1O.Cl [1078_14]
  Ligand-pharmacophore element distance, pharmacophore element C2: 0.74
  Ligand-pharmacophore element distance, pharmacophore element C3: 0
  Ligand-pharmacophore element distance, pharmacophore element C4: 0
  Ligand-pharmacophore element distance, pharmacophore element C5: 0.47
  Ligand-pharmacophore element distance, pharmacophore element C6: 0
  Ligand-pharmacophore element distance, pharmacophore element C7: 0
  Ligand-pharmacophore element distance, pharmacophore element CA1: 1.61
  Ligand-pharmacophore element distance, pharmacophore element CA2: 0.8
  Ligand-pharmacophore element distance, pharmacophore element CA3: 0
  Ligand-pharmacophore element distance, pharmacophore element CA4: 0
  Ligand-pharmacophore element distance, pharmacophore element CA5: 0
  Ligand-pharmacophore element distance, pharmacophore element CA6: 0
[1]
  d(CA1,C5): 3.13
  d(CA1,O1): 4.46
  d(CA1,O2): 4.47
  d(CA1,O4): 2.75
  d(H4,O1): 2.48
  d(H4,O2): 2.59
  d(O1,O2): 2.91
  d(O4,H2): 0.97
[2]
  d(N2,C2): 1.45
  d(N2,CA2): 5.69
  d(O2,H3): 2.58
  d(O2,N2): 2.77
Table A6-1 pharmacophore angle
  a(C5, CA1, O1): 159.36
  a(CA1, O1, O2): 109.29
  a(CA1, O4, H2): 126.58
  a(O1, CA1, O4): 70.42
  a(O1, O2, H4): 109.80
Table A6-2 pharmacophore angle
  a(O1, O2, H3): 144.55
  a(O1, O2, N2): 148.03
  a(O2, N2, C2): 129.57
  a(O2, N2, CA2): 155.65
[3]
  Pharmacophore torsion angle a(C5, CA1, O1, H4): 20.44
  Pharmacophore torsion angle a(H4, O1, O2, H3): −134.39
  Pharmacophore torsion angle a(H4, O1, O2, N2): −121.21
  Pharmacophore torsion angle a(O1, H4, O2, CA1): −62.09
  Pharmacophore torsion angle a(O1, O2, N2, C2): 126.74
[4]
  Pharmacophore torsion angle a(O1, O2, N2, CA2): 134.23

## C[C@H](NC(=O)[C@H]1C[C@@H](c2ccccc2)CCN1)C(=O)NCc1cc(Cl)ccc1O.Cl [1078_7]
  Ligand-pharmacophore element distance, pharmacophore element C2: 0.64
  Ligand-pharmacophore element distance, pharmacophore element C3: 0
  Ligand-pharmacophore element distance, pharmacophore element C4: 0
  Ligand-pharmacophore element distance, pharmacophore element C5: 0.61
  Ligand-pharmacophore element distance, pharmacophore element C6: 0
  Ligand-pharmacophore element distance, pharmacophore element C7: 0
  Ligand-pharmacophore element distance, pharmacophore element CA1: 1.69
  Ligand-pharmacophore element distance, pharmacophore element CA2: 0.55
  Ligand-pharmacophore element distance, pharmacophore element CA3: 0
  Ligand-pharmacophore element distance, pharmacophore element CA4: 0
  Ligand-pharmacophore element distance, pharmacophore element CA5: 0
  Ligand-pharmacophore element distance, pharmacophore element CA6: 0
[1]
  d(CA1,C5): 3.14
  d(CA1,O1): 4.83
  d(CA1,O2): 4.83
  d(CA1,O4): 2.77
  d(H4,O1): 2.08
  d(H4,O2): 2.49
  d(O1,O2): 3.35
  d(O4,H2): 0.97
[2]
  d(N2,C2): 1.47
  d(N2,CA2): 5.74
  d(O2,H3): 3.26
  d(O2,N2): 3.04
Table A6-1 pharmacophore angle
  a(C5, CA1, O1): 158.86
  a(CA1, O1, O2): 110.36
  a(CA1, O4, H2): 126.10
  a(O1, CA1, O4): 67.29
  a(O1, O2, H4): 86.28
Table A6-2 pharmacophore angle
  a(O1, O2, H3): 137.32
  a(O1, O2, N2): 140.50
  a(O2, N2, C2): 114.22
  a(O2, N2, CA2): 151.33
[3]
  Pharmacophore torsion angle a(C5, CA1, O1, H4): 30.48
  Pharmacophore torsion angle a(H4, O1, O2, H3): −121.10
  Pharmacophore torsion angle a(H4, O1, O2, N2): −116.26
  Pharmacophore torsion angle a(O1, H4, O2, CA1): −57.85
  Pharmacophore torsion angle a(O1, O2, N2, C2): 144.61
[4]
  Pharmacophore torsion angle a(O1, O2, N2, CA2): 143.84

## C[C@H](NC(=O)[C@@H](CCc1ccccc1)NCc1ccc(C(=O)N2CCOCC2)cc1)C(=O)NCc1ccc(C(=N)N)cc1.Cl.Cl [1153_B]
  Ligand-pharmacophore element distance, pharmacophore element C2: 10.14
  Ligand-pharmacophore element distance, pharmacophore element C3: 0
  Ligand-pharmacophore element distance, pharmacophore element C4: 0
  Ligand-pharmacophore element distance, pharmacophore element C5: 0
  Ligand-pharmacophore element distance, pharmacophore element C6: 0
  Ligand-pharmacophore element distance, pharmacophore element C7: 0
  Ligand-pharmacophore element distance, pharmacophore element CA1: 0.39
  Ligand-pharmacophore element distance, pharmacophore element CA2: 0.58
  Ligand-pharmacophore element distance, pharmacophore element CA3: 0
  Ligand-pharmacophore element distance, pharmacophore element CA4: 0
  Ligand-pharmacophore element distance, pharmacophore element CA5: 6.17
  Ligand-pharmacophore element distance, pharmacophore element CA6: 0
[1]
  d(CA1,N1): 3.54
  d(CA1,O1): 5.51
  d(CA1,O2): 8.18
  d(H4,O1): 5.77
  d(H4,O2): 7.90
  d(O1,O2): 9.57
[2]
  d(CA5,N2): 3.75
  d(N2,C2): 8.53
  d(N2,CA2): 5.06
  d(N2,O3): 9.72
  d(O2,H3): 3.10
  d(O2,N2): 2.99
Table A6-1 pharmacophore angle
  a(CA1, O1, O2): 144.91
  a(O1, O2, H4): 92.62
Table A6-1 pharmacophore angle, all compounds with protonatable center N1 except Methyl-amino-pyridine
  A(N1, CA1, O1) a): 171.50
Table A6-2 pharmacophore angle
  a(O1, O2, H3): 25.95
  a(O1, O2, N2): 44.76
  a(O2, N2, C2): 163.28
  a(O2, N2, CA2): 150.51
  a(O2, N2, O3): 165.3
[3]
  Pharmacophore torsion angle a(H4, O1, O2, H3): 70.64
  Pharmacophore torsion angle a(H4, O1, O2, N2): 133.70
  Pharmacophore torsion angle a(N1, CA1, O2, H4): 56.56
  Pharmacophore torsion angle a(O1, H4, O2, CA1): 23.08
  Pharmacophore torsion angle a(O1, O2, N2, C2): −139.94
[4]
  Pharmacophore torsion angle a(O1, O2, N2, CA2): 76.90
  Pharmacophore torsion angle a(O1, O2, N2, CA5): −161.98
  Pharmacophore torsion angle a(O1, O2, N2, O3): −144.09
Table A8-6, 6th residue column, nearest protein atom in cell to the left
  Pharmacophore protein distance to MET_658 (first MET_658 column): 2.53
Table A8-6, 9th residue column, nearest protein atom in cell to the left
  Pharmacophore protein distance to MET_658 (second MET_658 column): 3.26
[5]
  Pharmacophore protein distance to GLY_528: 3.41
  Pharmacophore protein distance to PHE_529: 3.23
  Pharmacophore protein distance to PRO_608: 4.41
  Pharmacophore protein distance to SER_611: 2.46
Table A8-6, pharmacophore elements C6, CA3, O3, H1, nearest protein atom in cell to the left
  Pharmacophore protein distance to TRP_655: 3.42
